# From publication PMC11811597, “Phenomics‐Based Discovery of Novel Orthosteric Choline Kinase Inhibitors” (Angewandte Chemie (International Ed. in English), 2025)
# “Also recorded” adds a separate entry of the source. Like-named read-outs stand apart in the source and are kept apart here.
# How the values were obtained:
# U2OS cells = test: Cell Painting Assay (CPA); type: cell-based, human
# Description: The described assay follows closely the method described by Bray et al.[15] Initially, 5 µL U2OS medium were added to each well of a 384-well plate (Revvity Phenoplate 384).
# Subsequently, U2OS cell were seeded with a density of 1600 cells per well in 20 µL medium. The plate was incubated for 10 min at the ambient temperature, followed by an additional 4 h incubation (37 °C, 5% CO2). Compound treatment was performed with the Echo 520 acoustic dispenser (Beckman-Coulter) followed by incubation for 20 h (37 °C, 5% CO2). Subsequently, mitochondria were stained with Mito Tracker Deep Red (Thermo Fisher Scientific, Cat. No. M22426). The Mito Tracker Deep Red stock solution (1 mM) was diluted to a final concentration of 100 nM in prewarmed medium. The medium was removed from the plate leaving 10 µL residual volume and 25 µL of the Mito Tracker solution were added to each well. The plate was incubated for 30 min in darkness (37 °C, 5% CO2). To fix the cells […] of 18.5 % formaldehyde in PBS were added, resulting in a final formaldehyde concentration of […]. Subsequently, the plate was incubated for another 20 min in darkness (RT) and washed three times with 70 µL of PBS. (Agilent Washer Elx405). Cells were permeabilized by addition of 25 µL 0.1% Triton X-100 to each well, followed by 15 min incubation (RT) in darkness. The cells were washed three times with PBS leaving a final volume of 10 µL. To each well 25 µL of a staining solution were added, which contains 1% BSA, 5 µL/ml Phalloidin (Alexa594 conjugate, Thermo Fisher Scientific, A12381), 25 µg/ml Concanavalin A (Alexa488 conjugate, Thermo Fisher Scientific, Cat. No.
# (Thermo Fisher Scientific, Cat. No. W11262) and 1.5 µM SYTO 14 solution (Thermo Fisher Scientific, Cat. No. S7576). The plate is incubated for 30 min (RT) in darkness and washed three times with 70 µl
# PBS. After the final washing step, the PBS was not aspirated. The plates were sealed and centrifuged […]
# The plates were prepared in triplicates with shifted layouts to reduce plate effects and imaged using a Micro XL High-Content Screening System (Molecular Devices) in 5 channels (DAPI: Ex350-400/ […]
# The generated images were processed with the CellProfiler package (https://cellprofiler.org/, version 3.0.0) on a computing cluster of the Max Planck Society to extract 1716 cell features per microscope site. The data was then further aggregated as medians per well (9 sites -> 1 well), then over the three […]
# Further analysis was performed with custom Python (https://www.python.org/) scripts using the Pandas (https://pandas.pydata.org/) and Dask (https://dask.org/) data processing libraries as well as the Scientific Python (https://scipy.org/) package (separate publication to follow).
# From the total set of 1716 features, a subset of highly reproducible and robust features was determined using the procedure described by Woehrmann et al.[16] in the following way:
# Two biological repeats of one plate containing reference compounds were analysed. For every feature, its full profile over each whole plate was calculated. If the profiles from the two repeats […]
# set of 579 robust features out of the total of 1716 that was used for all further analyses.
# The phenotypic profiles were compiled from the Z-scores of all individual cellular features, where the Z-score is a measure of how far away a data point is from a median value.
# Specifically, Z-scores of test compounds were calculated relative to the Median of DMSO controls.
# Thus, the Z-score of a test compound defines how many MADs (Median Absolute Deviations) the measured value is away from the Median of the controls as illustrated by the following formula:
# z − score = […]
# The phenotypic compound profile is then determined as the list of Z-scores of all features for one […]
# (1 picture or pasted object on this page, not shown here)
# In addition to the phenotypic profile, an induction value was determined for each compound as the […]
# Induction [%] = number of features with abs. values > 3 […]
# [1] = tested on: choline metabolism in MCF7 cells; test: NMR choline metabolite analysis; type: cell-based, human; details: for extracellular choline uptake: dose-dependent
# Description: NMR Choline Metabolite Analysis
# Sample preparation for the quantification of metabolites by nuclear magnetic resonance (NMR) spectroscopy was performed as described previously.[13] Briefly, 0.3 mL of cell culture medium (conditioned medium) was collected from each sample and mixed with 2 volumes of pre-chilled methanol (< -70 °C), vortexed for 30 s and placed on dry ice for at least 30 min. Following centrifugation for 20 min at 18100 × g and 0 °C, the supernatant extract of culture medium was dried and stored until NMR analysis. The remaining culture medium from each sample was discarded and cells were washed once with PBS (37 °C), and quenched with liquid nitrogen. Polar metabolites were extracted with 1.4 mL of an ice-cold solution of 67.5:7.5:25 (v/v/v) of methanol/chloroform/water.
# Samples were centrifuged at 18100 × g for 15 min at 0 °C and the supernatant consisted of intracellular polar metabolites was collected and dried under nitrogen gas stream. The remaining cell pellets were used for protein mass quantification using the Pierce™ BCA Protein Assay Kit (Thermo Scientific™).
# Samples from both cell culture medium and cell extracts were reconstituted in 220 µL of 50 mM phosphate buffer (pH 7.4) solution in deuterated water containing 0.05 mM trimethylsilyl propionic-d4-sodium salt (TSP-d4, Cambridge Isotope Laboratories, Inc.) as internal standard used for NMR referencing and quantification. One NMR experiment (pulse sequence: noesygppr1d; Bruker Biospin) was collected for each sample in a 14.1 T (600 MHz for 1H) Bruker Avance Neo NMR. All recorded NMR spectra were imported in Chenomx NMR suite 9.0 (Chenomx NMR suite, v9.0) for the quantification of choline, phosphocholine sn-glycero-phosphocholine (GPC) and betaine. Quantitative data (nmoles or μM) were then normalized to the amount of total protein mass (mg) of each sample. […]
SMILES,biosimilarity of UNC0638 and UNC0737 profiles (clustered together) (U2OS cells) [%],Biol.Sim. (%) (U2OS cells; Conc 3.00 μM),Cell Count (%) (U2OS cells; Conc 3.00 μM),Ind. (%) (% of parameters with significant changes) (U2OS cells; Conc 3.00 μM),Cell Count (%) (U2OS cells; Conc 5.00 μM),Ind. (%) (% of parameters with significant changes) (U2OS cells; Conc 5.00 μM),"Biol.Sim. (%) (U2OS cells; Conc 5.00 μM, morphological fingerprint similarity (no value printed for UNC0737 5 μM))",betaine [1],intracellular choline levels [1],phosphocholine (pCho) formation/levels relative to control [1],sn‐glycerophosphocholine (GPC) [1],extracellular choline uptake [1],phosphocholine (pCho) formation/levels relative to control ([1]; listed as UN0737)
COc1cc2c(NC3CCN(C(C)C)CC3)nc(C3CCCCC3)nc2cc1OCCCN1CCCC1 [UNC0638],> 90,91,93,73,86,83,96,did not observe changes,not significantly affected,reduction of pCho formation; also recorded: significantly reduced,not significantly affected,decrease in extracellular choline uptake,–
COc1cc2c(N(C)C3CCN(C(C)C)CC3)nc(C3CCCCC3)nc2cc1OCCCN1CCCC1 [UNC0737],> 90,94,86,83,90,86,–,did not observe changes,not significantly affected,reduction of pCho formation,not significantly affected,decrease in extracellular choline uptake,significantly reduced
